Source: patent US12667126B2, “Malonyl steviol glycosides and their comestible use” (Firmenich SA, priority 2020, dated 2026)

How the values were obtained:
[1] = Sensory testing: sweet capacity in water solution versus sucrose; conditions: dosages 62.5 ppm and 250 ppm, ten experts, dosage for equal sweet intensity from sucrose
Method: Malonyl glycosides 101, 102, 104 and 105 were evaluated in water solution at two selected dosages (62.5 ppm and 250 ppm) to identify their sweet capacity. Ten experts were asked to evaluate sweet, licorice, and sweet lingering intensities on a linear scale. Then, the dosage for equal sweet intensity from sucrose was identified. Sweet capacity for each compound was calculated based on dosage difference between tested compound and sucrose.

[2] = Sensory testing as sweet modifier in SG95 base; conditions: 30 ppm, seven experts, scale -5 to 5 vs reference; for sweet effect as sweet modifier: SG95 (PureCircle) base; for licorice effect as sweet modifier / sweet lingering effect as sweet modifier: SG95 base
Method: (§1) Compound 101 was evaluated as a sweet modifier in SG95 (PureCircle) base at 30 ppm. Seven experts were asked to compare the intensity difference between reference (SG95 base) and Compound 101 was added to the sample. The taste properties (such as sweet, licorice, sweet lingering) were evaluated on a scale of −5 to 5 (−5 denoted strong masking effect and 5 denoted strong enhancing effect, 0 being the intensity of reference).
as §1, with “105” for “101”, “SG95” for “SG95 (PureCircle)”, “added” for “added to the”
as §1, with “104” for “101”, “SG95” for “SG95 (PureCircle)”, “104 adding” for “101 was added to the”

SMILES	sweet capacity (times sweeter than sucrose) [1]	sweet effect as sweet modifier [2]	licorice effect as sweet modifier [2]	sweet lingering effect as sweet modifier [2]
C=C1C[C@@]23CC[C@H]4[C@@](C)(CCC[C@@]4(C)C(=O)O[C@@H]4O[C@H](CO)[C@@H](O)[C@H](O)[C@H]4O)[C@@H]2CCC1(O[C@@H]1O[C@H](CO)[C@@H](O)[C@H](O)[C@H]1O[C@@H]1O[C@H](COC(=O)CC(=O)O)[C@@H](O)[C@H](O)[C@H]1O)C3 [Compound 105, 6″′-O-malonyl stevioside]	about 100 times sweeter than sucrose	sweet enhancement effect		
C=C1C[C@@]23CC[C@H]4[C@@](C)(CCC[C@@]4(C)C(=O)O[C@@H]4O[C@H](COC(=O)CC(=O)O)[C@@H](O)[C@H](O)[C@H]4O)[C@@H]2CCC1(O[C@@H]1O[C@H](CO)[C@@H](O)[C@H](O[C@@H]2O[C@H](CO)[C@@H](O)[C@H](O)[C@H]2O)[C@H]1O[C@@H]1O[C@H](CO)[C@@H](O)[C@H](O)[C@H]1O)C3 [Compound 101, 6′-O-malonyl Rebaudioside A]	about 150 times sweeter than sucrose	sweet enhancement effect	better performance in licorice and sweet lingering masking than Rebaudioside A	better performance in licorice and sweet lingering masking than Rebaudioside A
C=C1C[C@@]2(C)CC[C@H]3[C@@](C)(CCC[C@@]3(C)C(=O)O[C@@H]3O[C@H](COC(=O)CC(=O)O)[C@@H](O)[C@H](O)[C@H]3O)[C@@H]2CCC1(C)O[C@@H]1O[C@H](CO)[C@@H](O)[C@H](O)[C@H]1O[C@@H]1O[C@H](CO)[C@@H](O)[C@H](O)[C@H]1O (some centres unmarked) [Compound 102, 6′-O-malonyl stevioside]	about 150 times sweeter than sucrose			
C=C1C[C@@]23CC[C@H]4[C@@](C)(CCC[C@@]4(C)C(=O)O[C@@H]4O[C@H](COC(=O)CC(=O)O)[C@@H](O)[C@H](O)[C@H]4O)[C@@H]2CCC1(O[C@@H]1O[C@H](CO)[C@@H](O)[C@H](O)[C@H]1O)C3 [Compound 104, 6′-O-malonyl rubusoside]	about 120 times sweeter than sucrose	sweet enhancement effect	performed well on tests for licorice and lingering masking effect	performed well on tests for licorice and lingering masking effect
